What was measured:
[1] = system: streptozotocin induced type I diabetes rats; test: Streptozotocin induced type I diabetes model; assay type: in vivo, rat; settings: insulin 2.5, single dose, at 2 hrs
Procedure: In another study streptozotocin was administered to the test animals, causing the destruction of the beta cells of pancreas. In rats a dose of STZ of 60 mg/kg ip causes stable hyperglycemia by day 7 post administration. Generally, this model mimics type I Diabetes Mellitus. Groups were treated for 15 days with ADM01, ADM01+insulin and insulin.
In the same study the effects of a single dose administration on fasting glucose levels was studied.

[2] = system: experimental diabetic rats (Streptozotocin-Nicotinamide model); test: 30-days study in Streptozotocin-Nicotinamide experimental diabetic rats; assay type: in vivo, rat; settings: after 10, 20 and 30 days of treatment vs base line (0 day); P<0.05
Procedure: In another study the effect of ADM01 on blood glucose levels in experimental diabetic rats, using the Streptozotocin-Nicotinamide model, was investigated. After confirming the stabilization of diabetes mellitus in the experimental animals a single dose study was carried out in which the effect of a single dose administration of different dosages of ADM01 on blood glucose levels was investigated against vehicle control.
After the single dose study, a 30-days study was carried out in which the effect of daily administration of ADM01 on blood glucose levels was investigated. The effect of doses of 200, 400 and 800 mg/kg body weight respectively were investigated.

rat islets = test: in vitro insulinotropic test using rat islets; assay type: cell-based; settings: dose 162(1 mM) micrograms; mean ± SEM
Excerpt: In an in vitro test using rat islets, the insulinotropic ability of ADM01 was investigated against standard (tolbutamide) and placebo control.

Compound | fall of FPG-levels [1] | serum blood glucose levels [2] | serum insulin levels [2] | Amount of insulin during stimulated insulin release (glucose, 16 mM) (rat islets) | Amount of insulin release at basal glucose levels (2 mM) (rat islets)
insulin | 23.3% | – | – | – | –
CCCCNC(=O)NS(=O)(=O)c1ccc(C)cc1 [Tolbutamide] | – | significantly decreased | significantly increased | 239.48 ± 11.43 picomoles/L | 107.08 ± 15.35 picomoles/L

— patent publication US20100173022A1, “COMPOSITION FOR THE TREATMENT OF DIABETES MELLITUS AND METABOLIC SYNDROME” (priority 2007, published 2010)
